Structures are written as SMILES. Read-outs that look alike come from different tables or passages of the source.

For orientation: melting point means the temperature of the solid-liquid transition. As a reminder, the IC50 is the point on the concentration scale where inhibition reaches its midpoint. For orientation: inhibition means the relative decrease from the control value, in per cent.

One data set concerns HCT-15 cell lines. Nature of the data set: MTT cytotoxicity assay, HCT-15. Type of data set: cell-based, human. The conditions noted are these: for IC50 / inhibition at 50 µM: Homo sapiens; for IC50: 72 h (3-Days) drug exposure, read-out: IC50 HCT-15; for inhibition at 50 µM: read-out: Inhibition rate (%) HCT-15. The method, then:
(§1) After treatment with target compounds at the different concentrations, MTT was added and the cells were incubated for another 4 h. The IC50 values of the selected compounds were evaluated by the same method. The cells were treated with compounds at different concentrations. The OD values were detected using a microplate reader at 570 nm.

The next data set concerns HCC1937 cell lines. The experiment in a line: MTT cytotoxicity assay, HCC1937. In kind it is cell-based, human. As to conditions: for IC50 / inhibition at 50 µM: Homo sapiens; for IC50: 72 h (3-Days) drug exposure, read-out: IC50 HCC1937; for inhibition at 50 µM: read-out: Inhibition rate (%) HCC1937. The method, then: as §1
Background: Tetrazolium dyes change colour on reduction, which living cells bring about.

Regarding `O=C(Nc1ccccc1F)N1CCN(Cc2nc3ccccc3c(=O)[nH]2)CC1` [A1, N-(2-fluorophenyl)-4-((4-oxo-3,4-dihydroquinazolin-2-yl)methyl)piperazine-1-carboxamide], the melting point lay in the range of 192.5 to 194.2 °C. In addition, the half-maximal inhibitory concentration (IC50) with HCT-15 cell lines (HCT-15, MTT) was found to be 18.4 ± 0.91 µM. The IC50 in the data set on HCC1937 cell lines (HCC1937, MTT) was 16.6 ± 1.12 µM.
For the molecule `O=C(Nc1cccc(F)c1)N1CCN(Cc2nc3ccccc3c(=O)[nH]2)CC1` [A2, N-(3-fluorophenyl)-4-((4-oxo-3,4-dihydroquinazolin-2-yl)methyl)piperazine-1-carboxamide], the melting point fell in the range of 189.5 to 192.1 °C. Moreover, the IC50 in the data set on HCT-15 cell lines (HCT-15, MTT) amounted to 34.9 ± 2.23 µM. In addition, the IC50 in the data set on HCC1937 cell lines (HCC1937, MTT) was above 50 µM.
In turn, `O=C(Nc1ccc(F)cc1)N1CCN(Cc2nc3ccccc3c(=O)[nH]2)CC1` [A3, N-(4-fluorophenyl)-4-((4-oxo-3,4-dihydroquinazolin-2-yl)methyl)piperazine-1-carboxamide] came in with a melting point of 196.5 to 197.8 °C. Moreover, in the data set on HCT-15 cell lines (HCT-15, MTT), the IC50 is above 50 µM. Moreover, the half-inhibitory concentration (IC50) with HCC1937 cell lines (HCC1937, MTT) is above 50 µM.
`O=C(Nc1ccccc1Cl)N1CCN(Cc2nc3ccccc3c(=O)[nH]2)CC1` [A4, N-(2-chlorophenyl)-4-((4-oxo-3,4-dihydroquinazolin-2-yl)methyl)piperazine-1-carboxamide]: the melting point lay within 197.9 to 199.6 °C. In addition, the IC50 in the data set with HCT-15 cell lines (HCT-15, MTT) worked out at 19.1 ± 1.12 µM. Besides, the IC50 in the data set with HCC1937 cell lines (HCC1937, MTT) came to 14.7 ± 1.67 µM.
`O=C(Nc1cccc(Cl)c1)N1CCN(Cc2nc3ccccc3c(=O)[nH]2)CC1` [A5, N-(3-chlorophenyl)-4-((4-oxo-3,4-dihydroquinazolin-2-yl)methyl)piperazine-1-carboxamide]: the melting point was 193.3 to 195.2 °C. The 50% inhibitory concentration (IC50) in the data set on HCT-15 cell lines (HCT-15, MTT) came out at 19.1 ± 0.79 µM. In the data set with HCC1937 cell lines (HCC1937, MTT), the IC50 was 25.9 ± 0.96 µM.
Molecule `O=C(Nc1ccc(Cl)cc1)N1CCN(Cc2nc3ccccc3c(=O)[nH]2)CC1` [A6, N-(4-chlorophenyl)-4-((4-oxo-3,4-dihydroquinazolin-2-yl)methyl)piperazine-1-carboxamide] returned a melting point of 189.8 to 191.4 °C. The IC50 with HCT-15 cell lines (HCT-15, MTT) stood at 21.4 ± 0.86 µM. Moreover, the 50% inhibitory concentration (IC50) in the data set with HCC1937 cell lines (HCC1937, MTT) was above 50 µM.
The corresponding values for `O=C(Nc1ccccc1Br)N1CCN(Cc2nc3ccccc3c(=O)[nH]2)CC1` [A7, N-(2-bromophenyl)-4-((4-oxo-3,4-dihydroquinazolin-2-yl)methyl)piperazine-1-carboxamide] are 195.1 to 196.7 °C, 29.6 ± 1.37 µM and 40.3 ± 3.32 µM.
The molecule `O=C(Nc1cccc(Br)c1)N1CCN(Cc2nc3ccccc3c(=O)[nH]2)CC1` [A8, N-(3-bromophenyl)-4-((4-oxo-3,4-dihydroquinazolin-2-yl)methyl)piperazine-1-carboxamide] came in with a melting point of 194.2 to 196.3 °C. In addition, the IC50 with HCT-15 cell lines (HCT-15, MTT) is 27.7 ± 2.56 µM. In the data set on HCC1937 cell lines (HCC1937, MTT), the IC50 came out at 47.4 ± 2.96 µM.
Molecule `O=C(Nc1ccc(Br)cc1)N1CCN(Cc2nc3ccccc3c(=O)[nH]2)CC1` [A9, N-(4-bromophenyl)-4-((4-oxo-3,4-dihydroquinazolin-2-yl)methyl)piperazine-1-carboxamide] gave a melting point of 187.8 to 188.9 °C. Moreover, the IC50 with HCT-15 cell lines (HCT-15, MTT) was above 50 µM. In addition, the IC50 with HCC1937 cell lines (HCC1937, MTT) was above 50 µM.
As for `Cc1ccccc1NC(=O)N1CCN(Cc2nc3ccccc3c(=O)[nH]2)CC1` [A10, 4-((4-oxo-3,4-dihydroquinazolin-2-yl)methyl)-N-(o-tolyl)piperazine-1-carboxamide], the melting point lay in the range of 199.9 to 201.6 °C. The 50% inhibitory concentration (IC50) with HCT-15 cell lines (HCT-15, MTT) was found to be 15.9 ± 0.85 µM. Further, the half-maximal inhibitory concentration (IC50) in the data set with HCC1937 cell lines (HCC1937, MTT) was 14.7 ± 1.03 µM.
`Cc1cccc(NC(=O)N2CCN(Cc3nc4ccccc4c(=O)[nH]3)CC2)c1` [A11, 4-((4-oxo-3,4-dihydroquinazolin-2-yl)methyl)-N-(m-tolyl)piperazine-1-carboxamide] displayed a melting point of 197.8 to 200.2 °C. In the data set on HCT-15 cell lines (HCT-15, MTT), the IC50 was 25.6 ± 1.17 µM. The IC50 with HCC1937 cell lines (HCC1937, MTT) was above 50 µM.
The corresponding values for `Cc1ccc(NC(=O)N2CCN(Cc3nc4ccccc4c(=O)[nH]3)CC2)cc1` [A12, 4-((4-oxo-3,4-dihydroquinazolin-2-yl)methyl)-N-(p-tolyl)piperazine-1-carboxamide] are 197.7 to 199.5 °C, above 50 µM and above 50 µM.
In turn, `O=C(Nc1ccccc1C(F)(F)F)N1CCN(Cc2nc3ccccc3c(=O)[nH]2)CC1` [A13, 4-((4-oxo-3,4-dihydroquinazolin-2-yl)methyl)-N-(2-(trifluoromethyl)phenyl) piperazine-1-carboxamide] gave a melting point of 200.1 to 201.2 °C. Moreover, the IC50 in the data set on HCT-15 cell lines (HCT-15, MTT) was found to be 20.2 ± 0.78 µM. Besides, the half-maximal inhibitory concentration (IC50) in the data set on HCC1937 cell lines (HCC1937, MTT) is above 50 µM.
Take `O=C(Nc1cccc(C(F)(F)F)c1)N1CCN(Cc2nc3ccccc3c(=O)[nH]2)CC1` [A14, 4-((4-oxo-3,4-dihydroquinazolin-2-yl)methyl)-N-(3-(trifluoromethyl)phenyl)piperazine-1-carboxamide]: the melting point was 197.8 to 200.3 °C. Further, the concentration for half-maximal inhibition (IC50) in the data set with HCT-15 cell lines (HCT-15, MTT) is 20 ± 1.15 µM. Besides, the IC50 with HCC1937 cell lines (HCC1937, MTT) was found to be 17.7 ± 0.77 µM.
The molecule `O=C(Nc1ccc(C(F)(F)F)cc1)N1CCN(Cc2nc3ccccc3c(=O)[nH]2)CC1` [A15, 4-((4-oxo-3,4-dihydroquinazolin-2-yl)methyl)-N-(4-(trifluoromethyl)phenyl)piperazine-1-carboxamide] registered a melting point of 198.8 to 200.6 °C. In the data set on HCT-15 cell lines (HCT-15, MTT), the IC50 was 15.6 ± 0.56 µM. The 50% inhibitory concentration (IC50) with HCC1937 cell lines (HCC1937, MTT) is above 50 µM.
As to `COc1ccccc1NC(=O)N1CCN(Cc2nc3ccccc3c(=O)[nH]2)CC1` [A16, N-(2-methoxyphenyl)-4-((4-oxo-3,4-dihydroquinazolin-2-yl)methyl)piperazine-1-carboxamide], the melting point was 188.5 to 190.7 °C. For the same molecule, the IC50 in the data set on HCT-15 cell lines (HCT-15, MTT) is 30.7 ± 2.13 µM. For the same molecule, in the data set on HCC1937 cell lines (HCC1937, MTT), the IC50 was above 50 µM.
Molecule `COc1cccc(NC(=O)N2CCN(Cc3nc4ccccc4c(=O)[nH]3)CC2)c1` [A17, N-(3-methoxyphenyl)-4-((4-oxo-3,4-dihydroquinazolin-2-yl)methyl)piperazine-1-carboxamide] showed a melting point of 186.3 to 188.5 °C. The 50% inhibitory concentration (IC50) in the data set on HCT-15 cell lines (HCT-15, MTT) was above 50 µM. The half-inhibitory concentration (IC50) in the data set with HCC1937 cell lines (HCC1937, MTT) is above 50 µM.
The molecule `COc1ccc(NC(=O)N2CCN(Cc3nc4ccccc4c(=O)[nH]3)CC2)cc1` [A18, N-(4-methoxyphenyl)-4-((4-oxo-3,4-dihydroquinazolin-2-yl)methyl)piperazine-1-carboxamide] came in with a melting point of 184.9 to 186.9 °C. Also, in the data set on HCT-15 cell lines (HCT-15, MTT), the IC50 is above 50 µM. Also, in the data set with HCC1937 cell lines (HCC1937, MTT), the IC50 was above 50 µM.
In turn, `O=C(Nc1cccc(F)c1F)N1CCN(Cc2nc3ccccc3c(=O)[nH]2)CC1` [A19, N-(2,3-difluorophenyl)-4-((4-oxo-3,4-dihydroquinazolin-2-yl)methyl)piperazine-1-carboxamide] yielded a melting point of 188.2 to 189.9 °C. The IC50 with HCT-15 cell lines (HCT-15, MTT) came out at 19.1 ± 0.59 µM. Further, the IC50 with HCC1937 cell lines (HCC1937, MTT) is above 50 µM.
In the same order, the values of `O=C(Nc1cc(F)ccc1F)N1CCN(Cc2nc3ccccc3c(=O)[nH]2)CC1` [A20, N-(2,5-difluorophenyl)-4-((4-oxo-3,4-dihydroquinazolin-2-yl)methyl)piperazine-1-carboxamide] are 202.1 to 204.2 °C, 33.1 ± 2.16 µM and 41.7 ± 1.89 µM.
Consider `Cc1cccc(NC(=O)N2CCN(Cc3nc4ccccc4c(=O)[nH]3)CC2)c1F` [A21, N-(2-fluoro-3-methylphenyl)-4-((4-oxo-3,4-dihydroquinazolin-2-yl)methyl)piperazine-1-carboxamide], for which the melting point fell in the range of 200.5 to 202.1 °C. For the same molecule, the IC50 in the data set on HCT-15 cell lines (HCT-15, MTT) turned out to be 28.3 ± 1.55 µM. For the same molecule, the half-inhibitory concentration (IC50) with HCC1937 cell lines (HCC1937, MTT) was above 50 µM.
In the same order, the values of `Cc1ccc(NC(=O)N2CCN(Cc3nc4ccccc4c(=O)[nH]3)CC2)c(F)c1` [A22, N-(2-fluoro-4-methylphenyl)-4-((4-oxo-3,4-dihydroquinazolin-2-yl)methyl)piperazine-1-carboxamide] are 198.4 to 200.7 °C, 21.7 ± 1.16 µM and above 50 µM.
With `Cc1ccc(F)c(NC(=O)N2CCN(Cc3nc4ccccc4c(=O)[nH]3)CC2)c1` [A23, N-(2-fluoro-5-methylphenyl)-4-((4-oxo-3,4-dihydroquinazolin-2-yl)methyl)piperazine-1-carboxamide], the melting point fell in the range of 199.5 to 201.1 °C. For the same molecule, the IC50 with HCT-15 cell lines (HCT-15, MTT) is 26 ± 1.67 µM. Besides, the IC50 in the data set with HCC1937 cell lines (HCC1937, MTT) is 44.2 ± 3.47 µM.
As to `COC(=O)c1ccccc1N` [compound 1], the inhibition at 50 µM with HCT-15 cell lines (HCT-15, 72 h) worked out at 13.7%; in the data set with HCC1937 cell lines (HCC1937, 72 h) it was 12.7%.
Consider `O=c1[nH]c(CCl)nc2ccccc12` [compound 2], for which the inhibition at 50 µM in the data set on HCT-15 cell lines (HCT-15, 50 μM, 72 h, MTT) was found to be 31.9%; with HCC1937 cell lines (HCC1937, 50 μM, 72 h, MTT), 10.3%.
On to `CC(C)(C)OC(=O)N1CCN(Cc2nc3ccccc3c(=O)[nH]2)CC1` [compound 3], for which the inhibition at 50 µM stood at 52.3% in the data set with HCT-15 cell lines (HCT-15, 50 μM, 72 h, MTT) and 19.5% in the data set with HCC1937 cell lines (HCC1937, 50 μM, 72 h, MTT).
In the same order, the values of `O=c1[nH]c(CN2CCNCC2)nc2ccccc12` [compound 4] are 48.9% and 16.5%.
Consider `Oc1ccc(N2CCNCC2)cc1` [compound 23], for which the “Inhibition rate (%) HCT-15” value in the data set on HCT-15 cell lines (50 μM, 72 h, MTT) was 41.9%. In addition, the “Inhibition rate (%) HCC1937” value in the data set on HCC1937 cell lines (50 μM, 72 h, MTT) came to 9.2%.
In the same order, the values of `O=c1[nH]c(=O)n([C@H]2C[C@H](O)[C@@H](CO)O2)cc1/C=C/Br` [compound 33] are 28.5% and 17.3%.
The corresponding values for `C[C@H](CCC(=O)O)[C@H]1CC[C@H]2[C@@H]3C(=O)C[C@@H]4CC(=O)CC[C@]4(C)[C@H]3CC(=O)[C@]12C` [compound 35] are 12.3% and 21.4%.
For the molecule `Cc1ccc(-c2cc(C(F)(F)F)nn2-c2ccc(S(N)(=O)=O)cc2)cc1` [compound 54], the “Inhibition rate (%) HCT-15” value in the data set on HCT-15 cell lines (50 μM, 72 h, MTT) is reported as 33.5%. For the same molecule, the “Inhibition rate (%) HCC1937” value with HCC1937 cell lines (50 μM, 72 h, MTT) was 33.1%.

The values above are taken from PMC10974284, “Discovery of Novel 4-Hydroxyquinazoline Derivatives: In Silico, In Vivo and In Vitro Studies Using Primary PARPi-Resistant Cell Lines” (Molecules, 2024).
